{"source": "patent US8702959B2", "about": "“System and method for detecting a substance in liquid” (priority 2009, dated 2014)", "key": {"[1]": {"tested_on": "Salmonella typhimurium TA1535 pSK1002 cells", "experiment": "Genotoxicity bio-detection of IQ with Salmonella typhimurium umuC'-'lacZ reporter, amperometry on micro-chip", "format": "cell-based", "method": "Salmonella typhimurium TA1535 pSK1002 [Y. Oda et al., Mutat. Res. 147 (1985) 219] cells were used for the IQ bio-detection. The construction of the pSK1002 plasmid was reported in H. Shinagawa et al. Gene. 23 (1983) 167, which is hereby incorporated by reference in its entirety. The exposition of bacteria was done according to Reifferscheid et al. [Reifferscheid et al., Mutat. Res. 253 (1991) 215]. An over night culture of the bacteria was refreshed in 20 ml TGA-medium (1:10 dilution of bacteria) and grown for further 2 h (37° C., 150 rpm). Prior to exposition the optical density (λ=595 nm) of the bacterial culture was adjusted to 0.44 by dilution with TGA medium. […] The OD595 of the exposed mixture was measured after an incubation time of 2 h at 37° C. and 900 rpm in shaking conditions.\nThe activity of the reporter enzyme β-galactosidase in the induced bacteria was measured by making use of the substrate para-Aminophenyl β-D-galactopyranoside (pAPG, 0.5 mM final concentration, Sigma). Shortly after the addition of pAPG, aliquots of 3 μl were introduced into the electrochemical microchambers and a constant potential of 300 mV vs. Ag/AgCl was applied on the electrochemical chamber in order to quantify the enzymatically generated product pAP. The setup was connected in such a way that the output current was monitored (i.e. amperometry measurement)."}, "[2]": {"tested_on": "E. coli reporter strain panel", "method": "The AP activity was measured electrochemically at potential […] by making use of pAPP in a point assay after induction period. The determined SOS-induction factors for each concentration level are plotted against each other.\nTo increase the capabilities of the reporter cells as genotoxicity bioreporters, a series of knock-out mutations was introduced to the E. coli RFM443's genome. The genes that were selected to be deleted are genes affiliated with DNA repair mechanisms (Nucleotide Exicision Repair, uvrA; DNA Pol V, umuD) and a structural gene that can influence cell permeability (lipopolysaccharide, rfaE). […] The deletion mutations in uvrA and umuD were transferred by P1 transduction. […] From each gene deletion experiment, eight Km^R colonies were chosen and checked for the correct mutation structure by PCR using a combination of locus- and kanamycin-specific primers (Table 1). PCR fragments with the right size of both junctions were sent to sequencing. Sequences were indentified using BLAST program operating on the default options querying the NCBI nucleotide collection database. The construction of double or triple mutants was obtained by the elimination of the resistance using a helper plasmid expressing the FLP recombinase, which acts on the FRT (FLP recognition target) sites flanking the resistance gene. Using the methods described above, a set of mutated reporter strains was constructed as detailed in Table 2. Strains dedicated to harbor the phoA reporter gene were also engineered to contain a deletion in the chromosomal phoA gene to eliminate the possibility of native PhoA activity."}, "[3]": {"tested_on": "Escherichia coli RFM443/pBR2TTS cells harboring a sulA::phoA fusion", "format": "cell-based", "method": "Escherichia coli RFM443/pBR2TTS cells harboring a sulA::phoA fusion were grown overnight in MOPS growth medium containing 0.1 mg/ml ampicillin with shaking conditions at 37° C. The overnight culture was diluted ×1/100, regrown to an optical density of 0.2 (600 nm). Finally NA (FW 254.22, Sigma) was added to a final concentration of 10 μg/ml. Following further incubation at various times of 0, 60, 90, or 120 minutes under similar conditions, aliquots of 3 μl were introduced into the electrochemical microchambers. Shortly after applying a constant potential of 300 mV vs. Ag/AgCl in the electrochemical chamber, the enzymatic substrate para-Aminophenyl phosphate (pAPP, MW 211.09, diagnoSwiss) was added reaching a concentration of 0.8 mg/ml.\nControl samples were prepared with the addition of growth medium instead of NA or pAPP to the incubation stage in order to verify the influence of NA on the induction of the bacteria and pAPP on the generated bio-electrochemical response."}}, "data": [{"compound": "Cn1c(N)nc2c3cccnc3ccc21", "note": "[IQ, 2-Amino-3-methylimidazo[4,5-f]quinoline]", "values": [{"measurement": "dependence of the differential slope of the electrochemical current on concentration", "setting": "[1]; IQ 5, 1.25, 0.31 μM activated with S9-fraction, 2 h, pAPG 0.5 mM, 300 mV vs. Ag/AgCl, FIG. 11A", "result": "more rapidly increasing electrochemical current characteristics"}, {"measurement": "detection by the prototype biosensor", "setting": "[1]; microfluidic whole cell prototype biosensor, genotoxic material", "result": "successfully detected"}, {"measurement": "response of the reporter strain mutated in uvrA and rfaE genes", "setting": "[2]; following metabolic activation with lyophilized liver S9 fraction, compared with umu-test reporter strain", "result": "responded"}]}, {"compound": "OO", "note": "[H2O2, hydrogen peroxide]", "values": [{"measurement": "response of the reporter to model genotoxicants", "setting": "[2]; AP activity measured electrochemically at potential 0.3 mV with pAPP, point assay after induction, FIG. 14", "result": "responsive"}, {"measurement": "response of the uvrA mutant reporter strain", "setting": "[2]; uvrA mutant, FIG. 14", "result": "elevated response"}]}, {"compound": "CCn1cc(C(=O)O)c(=O)c2ccc(C)nc21", "note": "[NA, Nalidixic acid]", "values": [{"measurement": "chrono-amperometric response of E. coli bacteria in the presence of toxicant after pAPP was added", "setting": "[3]; NA 10 μg/ml, 1 hr incubation, pAPP 0.8 mg/ml, 300 mV vs. Ag/AgCl, FIG. 10A", "result": "increasing electrochemical current"}, {"measurement": "electrochemical current of induced bacteria compared with non-induced bacteria, pAPP added to both", "setting": "[3]; NA 10 μg/ml, 1 hr incubation, pAPP 0.8 mg/ml, FIG. 10A", "result": "more rapidly increasing electrochemical current than non-induced bacteria"}, {"measurement": "effect of induction time on the slope of the detected electrochemical current", "setting": "[3]; NA 10 μg/ml, induction 0, 60, 90 or 120 minutes, FIGS. 10B-C", "result": "For longer induction times the current increased more rapidly"}, {"measurement": "detection by the prototype biosensor", "setting": "[3]; microfluidic whole cell prototype biosensor, model toxicant", "result": "successfully detected"}, {"measurement": "response of the ΔrfaE reporter strains", "setting": "[2]; ΔrfaE mutants, FIG. 14", "result": "respond to lower concentrations"}]}]}
